Experiment: Stability tests of Idarubicin HCl, 1% w/v aqueous solution, pH varied with NH4OH or HCl or dissolved as is (aglycone, bis-anhydro)
Type: physicochemical
Conditions: for % aglycone / % bis-anhydro: 1% w/v aqueous solution
Description: Starting product was idarubicin hydrochloride, 1% w/v aqueous solution, the analysis of which is shown in the data reported at t=0. 3% mol of NH4OH with respect to idarubicin hydrochloride was added to the solution at t=0 and the solution was incubated at 20° C. for the indicated time. The results in table 1 show the expected rise over time of the bis-anhydro degradation product at high pH (6.69), with very little increase of aglycone.
Starting product was idarubicin hydrochloride, 1% w/v aqueous solution, the analysis of which is shown in the data reported at t=0. 1% mol of NH4OH with respect to idarubicin hydrochloride was added to the solution at t=0 and the solution was incubated at 20° C. for the indicated time.
Starting product was idarubicin hydrochloride, 1% w/v aqueous solution, the analysis of which is shown in the data reported at t=0. 3% mol of NH4OH with respect to idarubicin hydrochloride was added to the solution at t=0 and the solution was incubated at 4° C. for the indicated time.
Starting product was idarubicin hydrochloride, 1% w/v aqueous solution, the analysis of which is shown in the data reported at t=0.1% mol of NH4OH with respect to idarubicin hydrochloride was added to the solution at t=0 and the solution was incubated at 4° C. for the indicated time.
Starting product was idarubicin hydrochloride, 1% w/v aqueous solution, the analysis of which is shown in the data reported at t=0. The solution was incubated for the indicated time at 20° C. without additional chemicals. The results in table 5 show the expected rise in bis-anhydro content.
Starting product was idarubicin hydrochloride, 1% w/v aqueous solution, the analysis of which is shown in the data reported at t=0. The solution was incubated for the indicated time at 4° C. without the addition of additional chemicals.The results in table 6 show a rise in bis-anhydro content, even at 4° C.
Starting product was idarubicin hydrochloride, 1% w/v aqueous solution. At t=0, the pH of the solution was lowered by the addition of 1% mol of HCl with respect to idarubicin hydrochloride. The solution was incubated for the indicated time at 20° C.
Starting product was idarubicin hydrochloride, 1% w/v aqueous solution. At t=0, the pH of the solution was lowered by the addition of 1% mol of HCl with respect to idarubicin hydrochloride. The solution was incubated for the indicated time at 4° C.
Starting product was idarubicin hydrochloride, 1% w/v aqueous solution. At t=0, the pH of the solution was lowered to 3.6 by the addition of 1.3% mol of HCl with respect to idarubicin hydrochloride. The solution was then incubated for the indicated time at 20° C.
Starting product was idarubicin hydrochloride, 1% w/v aqueous solution. At t=0, the pH of the solution was lowered to 3.55 by the addition of 1.5% mol of HCl with respect to idarubicin hydrochloride. The solution was then incubated for the indicated time at 20° C.
Starting product was idarubicin hydrochloride, 1% w/v aqueous solution. At t=0, the pH of the solution was lowered to 3.50 by the addition of 1.7% mol of HCl with respect to idarubicin hydrochloride.
Starting product was idarubicin hydrochloride, 1% w/v aqueous solution. At t=0, the pH of the solution was lowered to 3.03 by the addition of 6.5% mol of HCl with respect to idarubicin hydrochloride.
Starting product was idarubicin hydrochloride, 1% w/v aqueous solution. At t=0, the pH of the solution was lowered to 2.18 by the addition of 48% mol of HCl with respect to idarubicin hydrochloride.

[1] = HCl 1% mol, pH 3.91, 4° C., 169 hr
[2] = HCl 1% mol, pH 3.91, 4° C., 407 hr
[3] = HCl 1% mol, pH 3.91, 20° C., 28 hr
[4] = HCl 1% mol, pH 3.91, 20° C., 168 hr
[5] = HCl 1% mol, pH 3.91, 20° C., 406 hr
[6] = HCl to pH = 2.18 (extra HCl = 48% mol), 4° C., 30 hr
[7] = HCl to pH = 2.18 (extra HCl = 48% mol), 4° C., 119 hr
[8] = HCl to pH = 2.18 (extra HCl = 48% mol), 20° C., 27 hr
[9] = HCl to pH = 2.18 (extra HCl = 48% mol), 20° C., 118 hr
[10] = HCl to pH = 3.03 (extra HCl = 6.5% mol), 20° C., 366 hr
[11] = HCl to pH = 3.50 (extra HCl = 1.7% mol), 20° C., 366 hr
[12] = HCl to pH = 3.55 (extra HCl = 1.5% mol), 20° C., 366 hr
[13] = HCl to pH = 3.60 (extra HCl = 1.3% mol), 20° C., 366 hr
[14] = NH3 1% mol, pH 6.56, 4° C., 34 hr
[15] = NH3 1% mol, pH 6.56, 4° C., 56 hr
[16] = NH3 1% mol, pH 6.56, 4° C., 149 hr
[17] = NH3 1% mol, pH 6.56, 20° C., 29 hr
[18] = NH3 1% mol, pH 6.56, 20° C., 54 hr
[19] = NH3 1% mol, pH 6.56, 20° C., 146 hr
[20] = NH3 3% mol, pH 6.69, 4° C., 28 hr
[21] = NH3 3% mol, pH 6.69, 4° C., 129 hr
[22] = NH3 3% mol, pH 6.69, 20° C., 25 hr
[23] = NH3 3% mol, pH 6.69, 20° C., 122 hr
[24] = dissolved as is, pH 5.66, 4° C., 31 hr
[25] = dissolved as is, pH 5.66, 4° C., 154 hr
[26] = dissolved as is, pH 5.66, 20° C., 26 hr
[27] = dissolved as is, pH 5.66, 20° C., 57 hr
[28] = dissolved as is, pH 5.66, 20° C., 148 hr

SMILES: CC(=O)[C@]1(O)Cc2c(O)c3c(c(O)c2[C@@H](O[C@H]2C[C@@H](N)[C@H](O)C(C)O2)C1)C(=O)c1ccccc1C3=O.Cl (stereo partly shown) [Idarubicin HCl, Idarubicin hydrochloride]
- % aglycone (HCl 1% mol, pH 3.91, 4° C., 33 hr): 0.57%
- % aglycone [1]: 0.58%
- % bis-anhydro [1]: 0.06%
- % aglycone [2]: 0.58%
- % bis-anhydro [2]: 0.05%
- % aglycone (HCl 1% mol, pH 3.91, 4° C., t = 0): 0.59%
- % aglycone [3]: 0.57%
- % bis-anhydro [3]: 0.04%
- % aglycone [4]: 0.58%
- % bis-anhydro [4]: 0.09%
- % aglycone [5]: 0.59%
- % bis-anhydro [5]: 0.25%
- % aglycone (HCl 1% mol, pH 3.91, 20° C., t = 0): 0.59%
- % aglycone [6]: 0.61%
- % bis-anhydro [6]: 0.06%
- % aglycone [7]: 0.63%
- % bis-anhydro [7]: 0.06%
- % aglycone (HCl to pH = 2.18 (extra HCl = 48% mol), 4° C., t = 0): 0.59%
- % aglycone [8]: 0.72%
- % bis-anhydro [8]: 0.06%
- % aglycone [9]: 1.03%
- % bis-anhydro [9]: 0.06%
- % aglycone (HCl to pH = 2.18 (extra HCl = 48% mol), 20° C., t = 0): 0.59%
- % aglycone (HCl to pH = 3.03 (extra HCl = 6.5% mol), 4° C., 29 hr): 0.61%
- % aglycone (HCl to pH = 3.03 (extra HCl = 6.5% mol), 4° C., 80 hr): 0.61%
- % aglycone (HCl to pH = 3.03 (extra HCl = 6.5% mol), 4° C., 364 hr): 0.61%
- % aglycone (HCl to pH = 3.03 (extra HCl = 6.5% mol), 4° C., t = 0): 0.59%
- % aglycone (HCl to pH = 3.03 (extra HCl = 6.5% mol), 20° C., 22 hr): 0.62%
- % aglycone (HCl to pH = 3.03 (extra HCl = 6.5% mol), 20° C., 76 hr): 0.63%
- % aglycone (HCl to pH = 3.03 (extra HCl = 6.5% mol), 20° C., 124 hr): 0.65%
- % aglycone [10]: 0.77%
- % bis-anhydro [10]: 0.04%
- % aglycone (HCl to pH = 3.03 (extra HCl = 6.5% mol), 20° C., t = 0): 0.59%
- % aglycone (HCl to pH = 3.50 (extra HCl = 1.7% mol), 20° C., 22 hr): 0.59%
- % aglycone (HCl to pH = 3.50 (extra HCl = 1.7% mol), 20° C., 76 hr): 0.59%
- % aglycone (HCl to pH = 3.50 (extra HCl = 1.7% mol), 20° C., 124 hr): 0.60%
- % aglycone [11]: 0.61%
- % bis-anhydro [11]: 0.01%
- % aglycone (HCl to pH = 3.50 (extra HCl = 1.7% mol), 20° C., t = 0): 0.59%
- % aglycone (HCl to pH = 3.55 (extra HCl = 1.5% mol), 20° C., 22 hr): 0.59%
- % aglycone (HCl to pH = 3.55 (extra HCl = 1.5% mol), 20° C., 76 hr): 0.59%
- % aglycone (HCl to pH = 3.55 (extra HCl = 1.5% mol), 20° C., 124 hr): 0.60%
- % aglycone [12]: 0.61%
- % bis-anhydro [12]: 0.01%
- % aglycone (HCl to pH = 3.55 (extra HCl = 1.5% mol), 20° C., t = 0): 0.59%
- % aglycone (HCl to pH = 3.60 (extra HCl = 1.3% mol), 20° C., 22 hr): 0.59%
- % aglycone (HCl to pH = 3.60 (extra HCl = 1.3% mol), 20° C., 76 hr): 0.59%
- % aglycone (HCl to pH = 3.60 (extra HCl = 1.3% mol), 20° C., 124 hr): 0.60%
- % aglycone [13]: 0.61%
- % bis-anhydro [13]: 0.01%
- % aglycone (HCl to pH = 3.60 (extra HCl = 1.3% mol), 20° C., t = 0): 0.59%
- % aglycone [14]: 0.58%
- % bis-anhydro [14]: 0.50%
- % aglycone [15]: 0.58%
- % bis-anhydro [15]: 0.74%
- % aglycone [16]: 0.58%
- % bis-anhydro [16]: 1.33%
- % aglycone (NH3 1% mol, pH 6.56, 4° C., t = 0): 0.59%
- % aglycone [17]: 0.58%
- % bis-anhydro [17]: 2.37%
- % aglycone [18]: 0.58%
- % bis-anhydro [18]: 3.56%
- % aglycone [19]: 0.59%
- % bis-anhydro [19]: 8.03%
- % aglycone (NH3 1% mol, pH 6.56, 20° C., t = 0): 0.59%
- % aglycone [20]: 0.59%
- % bis-anhydro [20]: 0.63%
- % aglycone [21]: 0.59%
- % bis-anhydro [21]: 1.87%
- % aglycone (NH3 3% mol, pH 6.69, 4° C., t = 0): 0.59%
- % aglycone [22]: 0.60%
- % bis-anhydro [22]: 3.00%
- % aglycone [23]: 0.61%
- % bis-anhydro [23]: 13.46%
- % aglycone (NH3 3% mol, pH 6.69, 20° C., t = 0): 0.59%
- % aglycone [24]: 0.57%
- % bis-anhydro [24]: 0.11%
- % aglycone [25]: 0.57%
- % bis-anhydro [25]: 0.30%
- % aglycone (dissolved as is, pH 5.66, 4° C., t = 0): 0.59%
- % aglycone [26]: 0.57%
- % bis-anhydro [26]: 0.41%
- % aglycone [27]: 0.58%
- % bis-anhydro [27]: 0.84%
- % aglycone [28]: 0.58%
- % bis-anhydro [28]: 1.20%
- % aglycone (dissolved as is, pH 5.66, 20° C., t = 0): 0.59%
- pH at which found to be most stable (lowest amount of aglycon and bis-anhydro impurities, constant over time even at 20° C.): 3.5

Reference: US20070004653A1, “Stable lyophilized anthracycline glycosides” (priority 2005, published 2007)
